Test results from paper PMC3285636, “Identification by Virtual Screening and In Vitro Testing of Human DOPA Decarboxylase Inhibitors” (PLoS ONE, 2012).

Experiments:
[1] = target: T1, human DDC (Homo sapiens, UniProt P20711); assay: Enzyme-ligand equilibrium dissociation constant from visible CD signal changes of DDC; type: binding; conditions: change of 420 nm or 335 nm CD band, 100 mM potassium phosphate pH 7.4
T1 construct: made in house
T1 sequence (P20711 1-480): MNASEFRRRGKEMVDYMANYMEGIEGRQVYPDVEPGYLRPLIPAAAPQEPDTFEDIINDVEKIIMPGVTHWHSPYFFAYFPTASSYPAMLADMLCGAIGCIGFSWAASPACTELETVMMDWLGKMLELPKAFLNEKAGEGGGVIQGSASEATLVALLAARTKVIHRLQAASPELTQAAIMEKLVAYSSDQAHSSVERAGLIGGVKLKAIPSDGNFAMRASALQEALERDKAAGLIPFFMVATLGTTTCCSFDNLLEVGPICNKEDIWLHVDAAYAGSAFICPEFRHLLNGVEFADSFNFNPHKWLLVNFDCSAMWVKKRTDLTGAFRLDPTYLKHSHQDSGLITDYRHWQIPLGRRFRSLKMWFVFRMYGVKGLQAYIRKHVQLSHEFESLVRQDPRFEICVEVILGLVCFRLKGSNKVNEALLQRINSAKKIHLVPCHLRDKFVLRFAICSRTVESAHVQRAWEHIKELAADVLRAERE
Procedure: The equilibrium dissociation constant for each tested compound from DDC was determined by monitoring the decrease in the 420 nm CD signal of DDC (7 µM) in the presence of various ligand concentrations in 100 mM potassium phosphate buffer, pH 7.4. In any case, the maximun DMSO concentration in the mixture was kept lower than 1% (v/v). The KD values were obtained from the fitting of the data to the equation [drawing 3] where [E]t and [L]t represent the total concentrations of DDC dimer and ligand, respectively, Y refers to the visible CD signal change at 420 nm at the ligand concentration [L], and Ymax refers to the CD signal when all enzyme molecules are complexed with the ligand. CD measurements were performed with a Jasco J-710 spectropolarimeter using quartz cuvettes with 1 cm path length.

[2] = target: T1, human DDC; assay: Assay of the inhibitory activity: spectrophotometric measurement of dopamine production by DDC; type: biochemical; conditions: for IC50: 50 nM enzyme, 0.1 mM L-Dopa, 10 µM PLP, pH 7.4, 25°C, 9 concentrations in duplicate, read-out: IC50; for Ki: competitive inhibition, Table 4, third screening; for BE (binding efficiency): binding energy per unit of mass, from Ki and molecular weight in kDa
Procedure: DDC activity was determined by measuring the production of dopamine with a spectrophotometric assay outlined by Sherald et al. and modified by Charteris and John. The reaction was carried out in 0.1 M potassium phosphate buffer pH 7.4 at 25°C for 1 min and stopped by inactivation of the enzyme at 100°C for 90 sec. The inhibitory assay was performed by measuring the decarboxylase activity of DDC with 50 nM enzyme, 0.1 mM L-Dopa, and 10 µM PLP in the presence and in the absence of a fixed amount of each compound. Various amounts of dimethyl sulphoxyde (DMSO) were necessary to solubilize the compounds in 100 mM potassium phosphate buffer, pH 7.4. […] Compounds were evaluated at 9 concentrations, and each in duplicate. IC50 values were derived by nolinear regression analysis. The related inhibition type of the compounds on human DDC was identified from Lineweaver–Burk plots, and Ki and/or Ki′ values for the inhibitors tested were calculated by the software Origin 7.0.

[3] = test system: pig kidney DDC; conditions: cited from earlier work
[4] = set-up: method as in PMID 580398; conditions: animals and humans; cited from earlier work

Question: Which Kd [1] does the source give for `Cc1ccc(-c2nnc(S)n2/N=C/c2ccc(O)c(O)c2)cc1` [Compound 42] here?
Answer: 2700 ± 500 nM

Question: And the IC50 [2]?
Answer: 5200 ± 400 nM

Question: And the Ki [2]?
Answer: 2000 ± 200 nM

Question: What about the “BE (binding efficiency)” value [2] of the same molecule?
Answer: 17,5

Question: Which results are given for `Cc1cccc(-c2nnc(S)n2/N=C/c2ccc(O)c(O)c2)c1` [Compound 43]?
Answer: Kd [1]: 2800 ± 500 nM; IC50 [2]: 3800 ± 600 nM; Ki [2]: 1900 ± 100 nM; BE (binding efficiency) [2]: 17,5

Question: With `COc1cccc(-c2nnc(S)n2/N=C/c2ccc(O)c(O)c2)c1` [Compound 45] as the molecule, how does the Kd [1] read?
Answer: 1500 ± 300 nM

Question: And the IC50 [2]?
Answer: 6200 ± 300 nM

Question: What about the Ki [2] of the same molecule?
Answer: 2000 ± 100 nM

Question: What about the “BE (binding efficiency)” value [2] of the same molecule?
Answer: 16,7

Question: Which “DDC inhibition in words” value [3] does the source give for `NC(CO)C(=O)NNCc1ccc(O)c(O)c1O` (stereo not shown) [benserazide, trihydroxybenzylhydrazine seryl derivative] here?
Answer: not a powerful DDC inhibitor

Question: What about the “Metabolism before reaching the arterial blood” value [4] of the same molecule?
Answer: completely metabolized before it reaches the arterial blood

Question: Which “DDC inhibition in words” value [3] does the source give for `C[C@@](Cc1ccc(O)c(O)c1)(NN)C(=O)O` [carbidopa, L-α-methyl-α-hydrazino-3,4-dihydroxyphenylpropionic acid] here?
Answer: powerful irreversible DDC inhibitors

Question: With `NNCc1ccc(O)c(O)c1O` [trihydroxybenzylhydrazine] as the molecule, how does the “DDC inhibition in words” value [3] read?
Answer: powerful irreversible DDC inhibitors
